# In US11129910B2, “Specific conjugation linkers, specific immunoconjugates thereof, methods of making and uses such conjugates thereof” (priority 2016, dated 2021):
# pIC50: −log10 of the molar value.
# Key:
# [1] = tested on: human gastric carcinoma N-87 cell line tumor xenograft; experiment: Antitumor activity in vivo, tumor xenograft model; design: species or system BALB/c Nude mice
# Procedure: The in vivo efficacy of conjugates 196a, 201, 206, 354, 358, 370, 377, 385, and 407 along with T-DM1 were evaluated in a human gastric carcinoma N-87 cell line tumorxenograft models. Five-week-old female BALB/c Nude mice ([…]) were inoculated subcutaneously in the area under the right shoulder with N-87 carcinoma cells (5×10^6 cells/mouse) in 0.1 mL of serum-free medium. The tumors were grown for 8 days to an average size of 130 mm^3. The animals were then randomly divided into […] (6 animals per group). The first group of mice served as the control group and was treated with the phosphate-buffered saline vehicle. The remaining […] were treated with conjugates 196a, 201, 206, 354, 358, 370, 377, 385, 407 and T-DM1 respectively at dose of 6 mg/Kg administered intravenously. Three dimensions of the tumor were measured every 4 days and the tumor volumes were calculated using the formula tumor volume=1/2 (length×width×height). The weight of the animals was also measured at the same time. A mouse was sacrificed when any one of the following criteria was met: (1) loss of body weight of more than 20% from pretreatment weight, (2) tumor volume larger than 1500 mm^3, (3) too sick to reach food and water, or (4) skin necrosis. A mouse was considered to be tumor-free if no tumor was palpable.
# [2] = tested on: NCI-N87, a human gastric carcinoma cell line; experiment: In vitro cytotoxicity (MTT) assay; format: cell-based; conditions: NCI-N87 cells, 120 hours incubation, read-out: N87 cell (Ag+) IC50
# Procedure: The cell line used in the cytotoxicity assays was NCI-N87, a human gastric carcinoma cell line. The cells were grown in RPMI-1640 with 10% FBS. To run the assay, the cells (180 μl, 6000 cells) were added to each well in a 96-well plate and incubated for 24 hours at 37° C. with 5% CO2. Next, the cells were treated with test compounds (20 μl) at various concentrations in appropriate cell culture medium (total volume, 0.2 mL). The control wells contain cells and the medium but lack the test compounds. The plates were incubated for 120 hours at 37° C. with 5% CO2. MTT (5 mg/ml) was then added to the wells (20 μl) and the plates were incubated for 1.5 hr at 37° C. The medium was carefully removed and DMSO (180 μl) was added afterward. After it was shaken for 15 min, the absorbance was measured at 490 nm and 570 nm with a reference filter of 620 nm. The inhibition % was calculated according to the following equation: inhibition %=[1-(assay-blank)/(control-blank)]×100.
substance,measurement,setting,value
T-DM1,duration of tumor growth inhibition,[1]; 6 mg/Kg intravenously,38 days
same,elimination / eradication of the tumors,"[1]; 6 mg/Kg, i.v., one injection",not able to eliminate the tumors
same,pIC50,[2],10.15
